Measurements: patent publication US20060089340A1, “Novel steroids and steroid mimetics; method for their production; and use thereof” (priority 2003, published 2006)

COc1ccc2c(c1)CC[C@@H]1[C@@H]2CC[C@]2(C)[C@@H](O)C[C@@H](O)[C@]12F
melting point: 188 to 191 °C
